The values below come from patent EP4578939A1, “MYC[…]. BASED ON VARIOUS CARBON-NITROGEN METABOLIC […], METHOD FOR ISOLATING SAME, AND USE THEREOF” (Peng, Guanghao, priority 2022, dated 2024).

Read-outs that look alike come from different tables or passages of the source.

The subject of assay [1] is Mycobacterium sp. with the deposit number CGMCC No.21272. Briefly: BIOLOG GEN III growth experiments. Format: cell-based. The conditions noted are these: growth on the substance; strain CGMCC No.21272 (YT).
The subject of assay [2] is Mycobacterium sp. with deposit number of CGMCC No.21273. Briefly: BIOLOG GEN III growth experiments. Particulars: growth on the substance; strain CGMCC No.21273 (JD). Format: cell-based.
The test system of assay [3] is Mycobacterium sp. with the deposit number CGMCC No.21272. Briefly: BIOLOG chemically sensitive experiments. Format: cell-based. Particulars: strain CGMCC No.21272 (YT).
Assay [4] relates to Mycobacterium sp. with deposit number of CGMCC No.21273. The experiment in a line: BIOLOG chemically sensitive experiments. The assay is classed as cell-based. Particulars: strain CGMCC No.21273 (JD).
The subject of a further assay is strain YT. The experiment in a line: inhibition of nitrification inhibitors on nitrification activity and growth. Format: cell-based, Mycobacterium sp. Particulars: for inhibition at 5000 µM: Mycobacterium, read-out: Nitric oxide synthase (nitrification) activity inhibition rate (%). As to the method: The nitrogen contents of the two nitrogen sources were equal in a modified Stephenson medium with (NH4)2SO4 as a nitrogen source (NH4)2SO4 content was 2.0g/L) and a modified Stephenson medium with L-arginine hydrochloride (C6H14N4O2•HCl) as a nitrogen source (C6H14N4O2•HCl content was 1.6 g/L).
When sodium pyruvate was added as a carbon source in the design of a culture medium, 1.0M sodium pyruvate solution (the concentration was calculated in terms of pyruvic acid) was prepared firstly, the pH was adjusted to the range of 7.0-7.2, and the solution was sterilized separately for later use. Before use, 1ml of 1.0M sodium pyruvate solution was added to about 100ml of modified Stevenson culture medium with (NH4)2SO4 as a nitrogen source or L-arginine hydrochloride (C6H14N4O2•HCl) as a nitrogen source, and the pyruvic acid concentration of the culture system was designed to be 0.01M.
Four kinds of nitrification inhibitors 4-amino-1,2,4-triazole (ATC), dicyandiamide (DCD, C2H4N4), aminoguanidine hydrochloride (CH6N4•HCl), and guanylthiourea (C2H6N4S) were selected. The four nitrification inhibitors were prepared with a concentration of 500mM, respectively, after the solutions were filtered and sterilized, 1ml of the four nitrification inhibitors with a concentration of 500mM was added into the two medium with different nitrogen sources, such that the corresponding concentration of each of the nitrification inhibitors in the systems was 5 mM.
Two mediums with different nitrogen sources were respectively subjected to 5 treatments, namely without addition of an inhibitor, adding ATC, adding DCD, adding aminoguanidine hydrochloride, and adding guanylthiourea as shown in the table below; the YT system without addition of an inhibitor and the system without inoculation of strain YT and only addition of an inhibitor were respectively used as a control group; 1ml of PBS-YT bacterial liquid was inoculated, and 1ml of sterile water was used as a substitute when the inoculation of a bacterial strain was not performed. The total volume of each culture system was equal, it was about 100 ml.
1.5 Culture conditions: the culture was performed in a shaking table with a rotational speed of 180rpm at 28°C.
1.6 Measurement and calculation of indicator: the growth OD600 and pH value of thallus in the culture solution were measured every week, the contents of NH4^+-N, NO2^--N and NOx^--N were measured, the inhibition effect of the nitric oxide synthase (nitrification) activity of different culture systems were calculated and compared.
Nitric oxide synthase (nitrification) inhibition rate (%) = (NO2^--NYT concentration - NO2^--Nculture system added with an inhibitor concentration) ×100/ NO2^--NYT concentration

Where [5] appears, read: strain YT, Ammonium sulfate, inhibitor 5 mM, Culture 35 days.
The mark [6] stands for this setting: strain YT, L-arginine hydrochloride, inhibitor 5 mM, Culture 35 days.
Where [7] appears, read: strain YT, L-arginine hydrochloride as nitrogen source, inhibitor 5 mM, 7 days.
Setting [8] is: strain YT, L-arginine hydrochloride as nitrogen source, inhibitor 5 mM, 14 days.
Setting [9] is: strain YT, L-arginine hydrochloride as nitrogen source, inhibitor 5 mM, 21 days.
Setting [10] is: strain YT, L-arginine hydrochloride as nitrogen source, inhibitor 5 mM, 28 days.
[11] abbreviates: strain YT, L-arginine hydrochloride as nitrogen source, inhibitor 5 mM, 35 days.
Where [12] appears, read: strain YT, ammonium sulfate as nitrogen source, inhibitor 5 mM, 7 days.
Setting [13] is: strain YT, ammonium sulfate as nitrogen source, inhibitor 5 mM, 14 days.
[14] abbreviates: strain YT, ammonium sulfate as nitrogen source, inhibitor 5 mM, 21 days.
The mark [15] stands for this setting: strain YT, ammonium sulfate as nitrogen source, inhibitor 5 mM, 28 days.
Where [16] appears, read: strain YT, ammonium sulfate as nitrogen source, inhibitor 5 mM, 35 days.

For `OC[C@H]1O[C@H](OCC2O[C@@H](O)[C@H](O)[C@@H](O)[C@@H]2O)[C@H](O)[C@@H](O)[C@H]1O` (stereo partly drawn) [D-melibiose], the “BIOLOG GEN III (growth experiments) Results” value (“BIOLOG GEN III” below) in assay [1] and in assay [2] was “+” each time.
Regarding `OC[C@H]1O[C@H](O[C@H]2O[C@H](CO)[C@@H](O)[C@H](O)[C@H]2O)[C@H](O)[C@@H](O)[C@@H]1O` [D-trehalose], the “BIOLOG GEN III” value in assay [1] and in assay [2] was “+” in each case.
Consider `COC(=O)[C@@H](C)O` [D-methyl lactate], for which the “BIOLOG GEN III” value in assay [1] and in assay [2] was “-” each time.
With `O=[Te]([O-])[O-].[K+].[K+]` [Potassium tellurite], the “BIOLOG GEN II (chemically sensitive experiments) Results” value in assay [3] and in assay [4] was “+” throughout.
With `CO[C@@H]1O[C@H](CO)[C@@H](O)[C@H](O)[C@H]1O` [β-methyl-D-glucoside], the “BIOLOG GEN III” value in assay [1] and in assay [2] was “-” throughout.
For `C[C@H](O)C(=O)O` [L-lactic acid], the “BIOLOG GEN III” value in assay [1] and in assay [2] was “-” throughout.
For `O=C(O)C[C@H](O)C(=O)O` [L-malic acid], the “BIOLOG GEN III” value in assay [1] and in assay [2] was “+” each time.
`COc1cc(-c2ccc(-n3nc(-c4ccccc4)n[n+]3-c3ccccc3)c(OC)c2)ccc1-n1nc(-c2ccccc2)n[n+]1-c1ccccc1.[Cl-].[Cl-]` [Tetrazolium blue]: the “BIOLOG GEN II (chemically sensitive experiments) Results” value in assay [3] and in assay [4] was “-” each time.
With `[Cl-].[Na+]` [1%NaCl, NaCl], the “BIOLOG GEN II (chemically sensitive experiments) Results” value in assay [3] and in assay [4] was “+” throughout.
Turning to `O=C[C@H](O)[C@@H](O)[C@H](O)[C@H](O)COP(=O)(O)O` [D-glucose-6-phosphoric acid], the “BIOLOG GEN III” value in assay [1] and in assay [2] was “-” throughout.
Consider `[Cl-].[Li+]` [Lithium chloride], for which the “BIOLOG GEN II (chemically sensitive experiments) Results” value in assay [3] and in assay [4] was “+” each time.
As for `CC(O)CC(=O)O` (racemic) [β-hydroxy-D,L-butyric acid], the “BIOLOG GEN III” value in assay [1] and in assay [2] was “+” in each case.
Consider `O=C(O)C[C@@H](O)C(=O)O` [D-malic acid], for which the “BIOLOG GEN III” value in assay [1] and in assay [2] was “-” throughout.
Take Tween 40: the “BIOLOG GEN III” value in assay [1] and in assay [2] was “+” each time.
For `CC(O)C(=O)[O-].[Na+]` (centres unmarked) [1 % Sodium lactate, Sodium lactate], the “BIOLOG GEN II (chemically sensitive experiments) Results” value in assay [3] and in assay [4] was “+” in each case.
On to `O=C(CO)[C@@H](O)[C@H](O)[C@H](O)COP(=O)(O)O` [D-fructose-6-phosphoric acid], for which the “BIOLOG GEN III” value in assay [1] and in assay [2] was “+” throughout.
Take D-salicin: the “BIOLOG GEN III” value in assay [1] and in assay [2] was “-” in each case.
As to `O=C(O)CCC(=O)C(=O)O` [α-ketoglutarate], the “BIOLOG GEN III” value in assay [1] and in assay [2] was “+” each time.
On to `OC[C@H]1O[C@H](OC[C@H]2O[C@H](OC[C@H]3O[C@H](O[C@]4(CO)O[C@H](CO)[C@@H](O)[C@@H]4O)[C@H](O)[C@@H](O)[C@@H]3O)[C@H](O)[C@@H](O)[C@H]2O)[C@H](O)[C@@H](O)[C@H]1O` [Stachyose], for which the “BIOLOG GEN III” value in assay [1] and in assay [2] was “-” each time.
In general, inhibition refers to the percentage by which the read-out fell short of the control. Take `N=C(N)NC(N)=S` [Amidinothiourea, guanylthiourea]: the inhibition at 5000 µM in the assay on strain YT (504 h, strain YT, Ammonium sulfate, inhibitor 5 mM, Culture 21 days) was found to be 59.8%; with strain YT (504 h, strain YT, L-arginine hydrochloride, inhibitor 5 mM, Culture 21 days) it was 72.7%; in the assay on strain YT (672 h, strain YT, Ammonium sulfate, inhibitor 5 mM, Culture 28 days), 33.5%; in the assay on strain YT (672 h, strain YT, L-arginine hydrochloride, inhibitor 5 mM, Culture 28 days) it was 77.4%; in the assay on strain YT (strain YT, Ammonium sulfate, inhibitor 5 mM, Culture 7 days (Table 13d)), 95.6%; in the assay with strain YT (strain YT, Ammonium sulfate, inhibitor 5 mM, Culture 14 days (Table 13d)), 94.8%. For the same compound, the inhibition at 5000 µM with strain YT (setting [5]) worked out at 11%; with strain YT (strain YT, L-arginine hydrochloride, inhibitor 5 mM, Culture 14 days (Table 13d)), 98.3%; in the assay on strain YT (setting [6]) it was 72%. Besides, in the assay on strain YT (pure culture with two nitrogen sources, inhibitor 5 mM), the “effect on growth of strain YT” value was “can obviously inhibit the growth”. The “effect on nitrification activity of strain YT” value in the assay on strain YT (pure culture, inhibitor 5 mM) was “also exhibited inhibitory effect”. Further, the “Nitric oxide synthase (nitrification) activity inhibition rate (%)” value turned out to be 11.07% with strain YT (setting [5]) and 71.62% in the assay on strain YT (setting [6]). In addition, the “NH4^+-N” value with strain YT (setting [7]) was 8.13 mg/L; in the assay with strain YT (setting [8]) it was 175.90 mg/L; with strain YT (setting [9]) it was 154.73 mg/L; in the assay with strain YT (setting [10]), 138.43 mg/L; with strain YT (setting [11]), 165.02 mg/L; in the assay with strain YT (setting [12]) it was 395.07 mg/L. In addition, the “NH4^+-N” value with strain YT (setting [13]) came to 418.86 mg/L; with strain YT (setting [14]) it was 407.33 mg/L; in the assay on strain YT (setting [15]) it was 419.92 mg/L; in the assay with strain YT (setting [16]) it was 422.98 mg/L. Moreover, the “NO2^--N” value was 0 mg/L with strain YT (setting [7]); 1.72 mg/L in the assay on strain YT (setting [8]); 31.10 mg/L in the assay with strain YT (setting [9]); 25.70 mg/L in the assay with strain YT (setting [10]); 32.26 mg/L with strain YT (setting [11]); 0.02 mg/L in the assay on strain YT (setting [12]). Moreover, the “NO2^--N” value in the assay on strain YT (setting [13]) is given as 0.13 mg/L; in the assay with strain YT (setting [14]) it was 1.64 mg/L; in the assay on strain YT (setting [15]) it was 4.57 mg/L; with strain YT (setting [16]), 6.12 mg/L. Moreover, in the assay on strain YT (strain YT, two nitrogen sources, before 14 days of culture), the “inhibition rate on nitric oxide synthase (nitrification) activities” value is reported as ≥ 95%.
Consider `OC[C@@H](O)C(O)[C@H](O)CO` [D-arabitol], for which the “BIOLOG GEN III” value in assay [1] and in assay [2] was “-” in each case.
Regarding `OC[C@H]1O[C@H](OC[C@H]2O[C@H](O[C@]3(CO)O[C@H](CO)[C@@H](O)[C@@H]3O)[C@H](O)[C@@H](O)[C@@H]2O)[C@H](O)[C@@H](O)[C@H]1O` [D-raffinose], the “BIOLOG GEN III” value in assay [1] and in assay [2] was “-” in each case.
On to `CCC(O)C(=O)O` (centres unmarked) [A-hydroxybutyr atic acid], for which the “BIOLOG GEN III” value in assay [1] and in assay [2] was “-” throughout.
Turning to `OC[C@H]1O[C@H](O[C@H]2[C@H](O)[C@@H](O)[C@H](O)O[C@@H]2CO)[C@H](O)[C@@H](O)[C@@H]1O` [D-maltose], the “BIOLOG GEN III” value in assay [1] and in assay [2] was “-” throughout.
